Measurements as given in PubChem BioAssay (NCI).
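Growth conditions: 96-well plates. Treatment: test compound, 48 hours, 5 concentrations. Analysis: linear interpolation between bracketing concentrations; unreached endpoints set to highest concentration. GI50 marks 50% less growth. TGI marks complete inhibition of growth.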

What follows are molecules tested on OVCAR-4 ovarian (assay: growth of human tumour cells (NCI), 48 h).

SMILES | TGI | GI50
CC(=O)OCCOCBr | > 100 µM | 
O=C(c1ccccc1)[C@H]1Nc2cnccc2C2c3ccccc3CC21 (stereo partly specified) | > 76.9 µM | 
COc1ccc(C(=O)C(C(=O)CCC(=O)Nc2cccc(C(F)(F)F)c2)c2ccccc2)cc1 (stereo unspecified) | > 100 µM | 
NC1=NC(=O)C(CC(=O)Nc2ccc([N+](=O)[O-])cc2[N+](=O)[O-])S1 (stereo unspecified) | > 100 µM | 
O=C1c2ccccc2-c2cccc3ccc(Cc4ccccc4)c1c23 | > 100 µM | 
COC(=O)/C(=N\NC(=S)NN)C(C(=O)C(=O)Nc1ccccc1C(N)=O)c1nc2ccccc2[nH]c1=O (stereo unspecified) | > 100 µM | 
CN(C)CCNC(=O)Nc1c(C#N)[n+]([O-])c2cc(Cl)c(Cl)cc2[n+]1[O-] | > 100 µM | 17.8 µM
CC/C=C\C/C=C\C1CC(=O)NCCCNCCCCN1 (stereo unspecified) | > 100 µM | 
CC1CCCC(C(=O)/C(=C/c2cccc(Cl)c2)C(=O)C(=O)O)C1 (stereo unspecified) | > 100 µM | 
CC(=O)c1c(C)n([O-])c2cc(C)c(C)cc2[n+]1=O | > 100 µM | 
COc1ccc(/C=C/C(=O)c2sc(-n3nc(-c4ccccc4)cc3-c3ccccc3)nc2C)cc1OC | > 100 µM | 
NC(CCSCC(F)F)C(=O)O (stereo unspecified) | > 100 µM | 
CC1(C)OC(=O)C=C([O-])O1.CC1(C)OC(=O)C=C([O-])O1.O=c1c(O)c(-c2ccc([O-])cc2[O-])oc2cc(O)cc(O)c12.[Ti+4] | > 100 µM | 
CCOC(=O)[C@@H](C)C[C@H](Cc1ccccc1)NC(=O)c1csc([C@@H](C[C@H](C(C)C)N(C)C(=O)[C@@H](NC(=O)[C@H]2CCCCN2C)C(C)(C)C)OC(C)=O)n1 | > 16.7 µM | 0.00328 µM

The molecules below were run on SK-MEL-28 melanoma (assay: growth of human tumour cells (NCI), 48 h).

SMILES | TGI | GI50
CN(C)C(=S)/N=c1\ss/c(=N\S(=O)(=O)c2ccccc2)n1-c1ccccc1 | > 100 µM | 
Cc1c(C(=O)NN)nnn1-c1ccnc2c(C(F)(F)F)cccc12 | > 100 µM | > 100 µM
O=C(N/N=C/c1ccc(Cl)cc1Cl)c1ccccc1Nc1cccc(C(F)(F)F)c1 | > 100 µM | 28.8 µM
N#Cc1c(N)c(C(=O)O)nn(-c2cccc(C(F)(F)F)c2)c1=O | > 100 µM | 
CC1=Nc2c(ccc3c2C(=O)c2ccccc2C3=O)NC(c2ccncc2)C1 (stereo unspecified) | > 100 µM | > 100 µM
Cc1ccc(C(=O)CC(Sc2cccc(Cl)c2Cl)c2ccc(Cl)cc2)cc1C (stereo unspecified) | 44.8 µM | 20.5 µM
COc1cc(/C=C\c2ccc(O)cc2)cc(OC)c1OC | 9.61 µM | 
C=C(COC(C)=O)CC(/C=C(\C)CCC=C(C)C)OC(C)=O (stereo unspecified) | > 100 µM | 
Oc1c2c(c(O)c3ccccc13)=N[C@@H](c1ccccc1)[C@H](c1ccccc1)N=2 | > 100 µM | 
c1cc[c]([Sn]([S]c2cccc3cccnc23)([c]2ccccc2)[c]2ccccc2)cc1 | 0.15 µM | 0.0364 µM
O=C1CCn2c([nH]c3cccc4cccc2c43)=N1 | > 100 µM | 
CCOc1cccc2nc3cccc(C(=O)NCCN(C)C)c3nc12 | 3.77 µM | 
Cc1cc(C)nc(NS(=O)(=O)c2ccc(Nc3c4ccccc4nc4c(C(=O)N5CCN(CCOS(C)(=O)=O)CC5)ccc(Cl)c34)cc2)n1 | > 100 µM | 
Clc1cc(Cl)c2c(Cl)cc(Cl)c3c2c1N=S=N3 | > 100 µM | 
CN1CCN(C)C1c1cccc(C2N(C)CCN2C)c1 | > 100 µM | 
CC(=O)OCCOCBr | > 100 µM | 
O=C1c2ccccc2-c2c1c1ccccc1c(=O)n2CCNCCCNCCn1c2c(c3ccccc3c1=O)C(=O)c1ccccc1-2 | > 50 µM | 0.0667 µM

SMILES | TGI | GI50
CC(O)CN1C(=O)NC(Cc2ccccc2)C1=O (stereo unspecified) | > 100 µM | 
O=C(c1ccccc1)[C@H]1Nc2cnccc2C2c3ccccc3CC21 (stereo partly specified) | 18.9 µM | 
CN(C)c1nc(-c2cccs2)n2nc(-c3ccc(Cl)cc3)cc2n1 | > 100 µM | > 100 µM
COc1ccc(C(=O)C(C(=O)CCC(=O)Nc2cccc(C(F)(F)F)c2)c2ccccc2)cc1 (stereo unspecified) | > 100 µM | 
NC1=NC(=O)C(CC(=O)Nc2ccc([N+](=O)[O-])cc2[N+](=O)[O-])S1 (stereo unspecified) | > 100 µM | 
O=C1c2ccccc2-c2cccc3ccc(Cc4ccccc4)c1c23 | > 100 µM | 
COC(=O)/C(=N\NC(=S)NN)C(C(=O)C(=O)Nc1ccccc1C(N)=O)c1nc2ccccc2[nH]c1=O (stereo unspecified) | > 100 µM | 
CN(C)CCNC(=O)Nc1c(C#N)[n+]([O-])c2cc(Cl)c(Cl)cc2[n+]1[O-] | > 100 µM | 34.3 µM
CC/C=C\C/C=C\C1CC(=O)NCCCNCCCCN1 (stereo unspecified) | > 100 µM | 
CC1CCCC(C(=O)/C(=C/c2cccc(Cl)c2)C(=O)C(=O)O)C1 (stereo unspecified) | > 100 µM | 
CC(=O)c1c(C)n([O-])c2cc(C)c(C)cc2[n+]1=O | > 100 µM | 
N#CC(C#N)=Cc1cccc(Oc2ccccc2)c1 | 20 µM | 
COc1ccc(/C=C/C(=O)c2sc(-n3nc(-c4ccccc4)cc3-c3ccccc3)nc2C)cc1OC | > 100 µM | 
NC(CCSCC(F)F)C(=O)O (stereo unspecified) | > 100 µM | 
COC(=O)NC/C=C\c1nc(CC/C=C\C(=O)OC2CC3CC(=O)O[C@@H](/C=C/CC(C)C)C[C@@H]4CCC(C)C(C[C@@H](OC)CC(C2)O3)O4)co1 (stereo partly specified) | > 100 µM | 26.5 µM
CC1(C)OC(=O)C=C([O-])O1.CC1(C)OC(=O)C=C([O-])O1.O=c1c(O)c(-c2ccc([O-])cc2[O-])oc2cc(O)cc(O)c12.[Ti+4] | > 100 µM | 
Nc1ccc(SC23CC4CC(CC(C4)C2)C3)cc1 | > 100 µM | 

The molecules below were run on SNB-19 CNS (assay: growth of human tumour cells (NCI), 48 h).

SMILES | GI50 | TGI
Cc1c(C(=O)NN)nnn1-c1ccnc2c(C(F)(F)F)cccc12 | > 100 µM | > 100 µM
O=C(N/N=C/c1ccc(Cl)cc1Cl)c1ccccc1Nc1cccc(C(F)(F)F)c1 | 2.5 µM | 6.93 µM
N#Cc1c(N)c(C(=O)O)nn(-c2cccc(C(F)(F)F)c2)c1=O |  | > 100 µM
CCOC(=O)Cc1nc(/C(C#N)=C/c2ccco2)[nH]c(=O)c1C#N |  | > 100 µM
CC1=Nc2c(ccc3c2C(=O)c2ccccc2C3=O)NC(c2ccncc2)C1 (stereo unspecified) | > 100 µM | > 100 µM
Cc1ccc(C(=O)CC(Sc2cccc(Cl)c2Cl)c2ccc(Cl)cc2)cc1C (stereo unspecified) | 27.5 µM | 78.8 µM
COc1cc(/C=C\c2ccc(O)cc2)cc(OC)c1OC |  | > 100 µM
C=C(COC(C)=O)CC(/C=C(\C)CCC=C(C)C)OC(C)=O (stereo unspecified) |  | > 100 µM
CC1(C)CCc2cc3c(cc2O1)OCCC3=O |  | > 100 µM
Oc1c2c(c(O)c3ccccc13)=N[C@@H](c1ccccc1)[C@H](c1ccccc1)N=2 |  | > 100 µM
c1cc[c]([Sn]([S]c2cccc3cccnc23)([c]2ccccc2)[c]2ccccc2)cc1 | 0.256 µM | 0.901 µM
O=C1CCn2c([nH]c3cccc4cccc2c43)=N1 |  | > 100 µM
C=C1CC(COc2cc(Cl)nc(N)n2)C1 | 37.2 µM | 
CCOc1cccc2nc3cccc(C(=O)NCCN(C)C)c3nc12 |  | 11.2 µM
Cc1cc(C)nc(NS(=O)(=O)c2ccc(Nc3c4ccccc4nc4c(C(=O)N5CCN(CCOS(C)(=O)=O)CC5)ccc(Cl)c34)cc2)n1 |  | > 100 µM
Clc1cc(Cl)c2c(Cl)cc(Cl)c3c2c1N=S=N3 |  | > 100 µM
CN1CCN(C)C1c1cccc(C2N(C)CCN2C)c1 |  | > 100 µM
O=C1c2ccccc2-c2c1c1ccccc1c(=O)n2CCNCCCNCCn1c2c(c3ccccc3c1=O)C(=O)c1ccccc1-2 | 0.389 µM | > 50 µM
CC(O)CN1C(=O)NC(Cc2ccccc2)C1=O (stereo unspecified) |  | > 100 µM

SMILES | GI50 | TGI
O=C(c1ccccc1)[C@H]1Nc2cnccc2C2c3ccccc3CC21 (stereo partly specified) |  | > 100 µM
CN(C)c1nc(-c2cccs2)n2nc(-c3ccc(Cl)cc3)cc2n1 | 64.1 µM | > 100 µM
COc1ccc(C(=O)C(C(=O)CCC(=O)Nc2cccc(C(F)(F)F)c2)c2ccccc2)cc1 (stereo unspecified) |  | > 100 µM
NC1=NC(=O)C(CC(=O)Nc2ccc([N+](=O)[O-])cc2[N+](=O)[O-])S1 (stereo unspecified) |  | > 100 µM
O=C1c2ccccc2-c2cccc3ccc(Cc4ccccc4)c1c23 |  | > 100 µM
COC(=O)/C(=N\NC(=S)NN)C(C(=O)C(=O)Nc1ccccc1C(N)=O)c1nc2ccccc2[nH]c1=O (stereo unspecified) |  | > 100 µM
CN(C)CCNC(=O)Nc1c(C#N)[n+]([O-])c2cc(Cl)c(Cl)cc2[n+]1[O-] | 27.8 µM | > 100 µM
CC/C=C\C/C=C\C1CC(=O)NCCCNCCCCN1 (stereo unspecified) |  | > 100 µM
CC1CCCC(C(=O)/C(=C/c2cccc(Cl)c2)C(=O)C(=O)O)C1 (stereo unspecified) |  | > 100 µM
CC(=O)c1c(C)n([O-])c2cc(C)c(C)cc2[n+]1=O |  | > 100 µM
N#CC(C#N)=Cc1cccc(Oc2ccccc2)c1 |  | 59.4 µM
Cc1ncc([N+](=O)[O-])n1CCNC(=O)CCCCn1ccnc1[N+](=O)[O-] |  | > 100 µM
COc1ccc(/C=C/C(=O)c2sc(-n3nc(-c4ccccc4)cc3-c3ccccc3)nc2C)cc1OC |  | > 100 µM
NC(CCSCC(F)F)C(=O)O (stereo unspecified) |  | > 100 µM
COC(=O)NC/C=C\c1nc(CC/C=C\C(=O)OC2CC3CC(=O)O[C@@H](/C=C/CC(C)C)C[C@@H]4CCC(C)C(C[C@@H](OC)CC(C2)O3)O4)co1 (stereo partly specified) | 34.4 µM | > 100 µM
CC1(C)OC(=O)C=C([O-])O1.CC1(C)OC(=O)C=C([O-])O1.O=c1c(O)c(-c2ccc([O-])cc2[O-])oc2cc(O)cc(O)c12.[Ti+4] |  | > 100 µM
Nc1ccc(SC23CC4CC(CC(C4)C2)C3)cc1 |  | > 100 µM
CCOC(=O)[C@@H](C)C[C@H](Cc1ccccc1)NC(=O)c1csc([C@@H](C[C@H](C(C)C)N(C)C(=O)[C@@H](NC(=O)[C@H]2CCCCN2C)C(C)(C)C)OC(C)=O)n1 | < 0.00167 µM | > 16.7 µM
